Assay results published in PubChem BioAssay AID248 (DTP/NCI, 2004).
Values joined by “and” are separate entries in the source; they are usually repeats but may differ in a detail not shown here. Identical values can stand only once. Inconclusive results and toxic doses are left out. No stated cut-off is given here; in the data, active means T/C of 150% or more; inactive means T/C below 125%.

Tested on: L1210 leukemia ip in BDF1 mice, survival T/C
Assay: NCI In Vivo Anticancer Drug Screen. Data for tumor model L1210 Leukemia (intraperitoneal) in B6D2F1 (BDF1) mice
Details: endpoint: mean survival time, higher = longer survival
How it was run: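 Transplantable tumor model; survival measured in treated vs vehicle control mice. Value = treated/control.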

[1] = dose: 100.0 mg/kg/injection, schedule: Q01DX001 (ip), vehicle: Klucel (hydroxypropylcellulose) (HPC)
[2] = dose: 200.0 mg/kg/injection, schedule: Q01DX001 (ip), vehicle: Klucel (hydroxypropylcellulose) (HPC)
[3] = dose: 400.0 mg/kg/injection, schedule: Q01DX001 (ip), vehicle: Klucel (hydroxypropylcellulose) (HPC)
[4] = dose: 100.0 mg/kg/injection, schedule: Q01DX001 (ip), vehicle: saline
[5] = dose: 200.0 mg/kg/injection, schedule: Q01DX001 (ip), vehicle: saline
[6] = dose: 400.0 mg/kg/injection, schedule: Q01DX001 (ip), vehicle: saline
[7] = dose: 6.25 mg/kg/injection, schedule: Q01DX009 (ip), vehicle: saline
[8] = dose: 12.5 mg/kg/injection, schedule: Q01DX009 (ip), vehicle: saline
[9] = dose: 100.0 mg/kg/injection, schedule: Q04DX003 (ip), vehicle: saline
[10] = dose: 100.0 mg/kg/injection, schedule: Q04DX002 (ip), vehicle: saline with Tween-80
[11] = dose: 200.0 mg/kg/injection, schedule: Q04DX002 (ip), vehicle: saline with Tween-80
[12] = dose: 400.0 mg/kg/injection, schedule: Q04DX002 (ip), vehicle: saline with Tween-80
[13] = dose: 100.0 mg/kg/injection, schedule: Q04DX002 (ip), vehicle: Klucel (hydroxypropylcellulose) (HPC)
[14] = dose: 200.0 mg/kg/injection, schedule: Q04DX003 (ip), vehicle: saline
[15] = dose: 100.0 mg/kg/injection, schedule: Q01DX009 (ip), vehicle: saline with Tween-80
[16] = dose: 200.0 mg/kg/injection, schedule: Q01DX009 (ip), vehicle: saline with Tween-80
[17] = dose: 100.0 mg/kg/injection, schedule: Q01DX009 (ip), vehicle: Klucel (hydroxypropylcellulose) (HPC)
[18] = dose: 200.0 mg/kg/injection, schedule: Q01DX009 (ip), vehicle: Klucel (hydroxypropylcellulose) (HPC)
[19] = dose: 400.0 mg/kg/injection, schedule: Q01DX009 (ip), vehicle: Klucel (hydroxypropylcellulose) (HPC)
[20] = dose: 100.0 mg/kg/injection, schedule: Q01DX001 (ip), vehicle: saline with Tween-80
[21] = dose: 200.0 mg/kg/injection, schedule: Q01DX001 (ip), vehicle: saline with Tween-80
[22] = dose: 400.0 mg/kg/injection, schedule: Q01DX001 (ip), vehicle: saline with Tween-80
[23] = dose: 100.0 mg/kg/injection, schedule: Q01DX009 (ip), vehicle: saline

Measured: T/C

O=C1C2(Cl)C(Cl)=C(Cl)C1(Cl)C1(Cl)C(Cl)=C(Cl)C(=O)C21Cl (configuration not stated)
inactive: [1] 102 % of control | [2] 102 % of control | [3] 97 % of control

CCOC(=O)OC(=O)CNC(=O)CN1C(=O)c2ccccc2C1=O
inactive: [4] 100 % of control | [5] 94 % of control | [6] 91 % of control

CN1CCCCC1CCN1c2ccccc2Sc2ccc(S(C)=O)cc21 (configuration not stated)
inactive: [7] 97 % of control | [8] 98 % of control and 101 % of control and 108 % of control | dose: 25.0 mg/kg/injection, schedule: Q01DX009 (ip), vehicle: saline 100 % of control and 101 % of control (2×) | dose: 25.0 mg/kg/injection, schedule: Q04DX003 (ip), vehicle: saline 112 % of control | dose: 50.0 mg/kg/injection, schedule: Q01DX009 (ip), vehicle: saline 119 % of control | dose: 50.0 mg/kg/injection, schedule: Q04DX003 (ip), vehicle: saline 115 % of control | [9] 105 % of control

CC(=O)OCCN1CC1
inactive: dose: 3.12 mg/kg/injection, schedule: Q01DX009 (ip), vehicle: saline 116 % of control | [7] 122 % of control | [8] 118 % of control

Cn1c2ccccc2c2nnc(NCCCO)nc21
inactive: [10] 86 % of control | [11] 104 % of control | [12] 97 % of control

CC(=O)c1cc(Cl)ccc1O
inactive: [1] 104 % of control | [13] 100 % of control | [2] 106 % of control | dose: 200.0 mg/kg/injection, schedule: Q04DX002 (ip), vehicle: Klucel (hydroxypropylcellulose) (HPC) 96 % of control | [3] 97 % of control | dose: 400.0 mg/kg/injection, schedule: Q04DX002 (ip), vehicle: Klucel (hydroxypropylcellulose) (HPC) 89 % of control

O=S(=O)(C#Cc1ccccc1)c1ccccc1
inactive: [13] 89 % of control

Cc1ccc(N2CCN(c3ccc(C)cc3)CC2)cc1
inactive: dose: 100.0 mg/kg/injection, schedule: Q04DX002 (ip), vehicle: gum acacia 109 % of control | dose: 200.0 mg/kg/injection, schedule: Q04DX002 (ip), vehicle: gum acacia 95 % of control | dose: 400.0 mg/kg/injection, schedule: Q04DX002 (ip), vehicle: gum acacia 103 % of control

CC(=O)OC1COC(n2cnc3c(=S)nc(N)[nH]c32)C(OC(C)=O)C1OC(C)=O (configuration not stated)
inactive: [4] 100 % of control | [5] 97 % of control | [6] 97 % of control

C=CCN1CCC(C(=O)OC)(c2ccccc2)CC1
inactive: [9] 96 % of control | [14] 103 % of control

O=C1NC(=S)S/C1=C\c1ccc(Cl)c(Cl)c1
inactive: [15] 97 % of control | [16] 95 % of control

CCOc1ccc(/C=C2\N=C(c3ccccc3)OC2=O)cc1OC
inactive: [17] 109 % of control | [18] 105 % of control | [19] 102 % of control

Cc1c(C)c2c(c(C)c1O)CC(CC(=O)CO)CO2 (configuration not stated)
inactive: [20] 97 % of control | [21] 95 % of control | [22] 97 % of control

Cc1cc(Cl)c(Cl)cc1NC(=O)c1c(Br)c(Br)c(Br)c(Br)c1C(=O)O
inactive: [17] 108 % of control | [18] 96 % of control | [19] 95 % of control

O=C(Nc1ccc(Cl)cc1C(F)(F)F)Oc1ccc(OCc2ccccc2)cc1
inactive: [15] 94 % of control | [16] 100 % of control | dose: 400.0 mg/kg/injection, schedule: Q01DX009 (ip), vehicle: saline with Tween-80 92 % of control

CC(C)(CS(C)(=O)=O)C(=O)O
inactive: [4] 98 % of control | [23] 89 % of control | [5] 98 % of control | [6] 101 % of control | dose: 400.0 mg/kg/injection, schedule: Q01DX009 (ip), vehicle: saline 91 % of control

Brc1cccc(CCOCc2ccccc2)c1
inactive: [10] 103 % of control | [11] 100 % of control | [12] 97 % of control

COC1OCC(Cl)C(Cl)C1O (configuration not stated)
inactive: dose: 50.0 mg/kg/injection, schedule: Q04DX002 (ip), vehicle: saline 110 % of control | dose: 100.0 mg/kg/injection, schedule: Q04DX002 (ip), vehicle: saline 100 % of control | dose: 200.0 mg/kg/injection, schedule: Q04DX002 (ip), vehicle: saline 100 % of control

CN1CCCCC1C(O)CO (configuration not stated)
inactive: [9] 103 % of control | [14] 102 % of control | dose: 400.0 mg/kg/injection, schedule: Q04DX003 (ip), vehicle: saline 100 % of control

CCOc1ncnc2c1nnn2C1OC(CO)C(O)C1O (configuration not stated)
inactive: dose: 12.5 mg/kg/injection, schedule: Q01DX001 (ip), vehicle: saline with Tween-80 105 % of control | dose: 25.0 mg/kg/injection, schedule: Q01DX001 (ip), vehicle: saline with Tween-80 107 % of control | dose: 50.0 mg/kg/injection, schedule: Q01DX001 (ip), vehicle: saline with Tween-80 105 % of control | [20] 104 % of control | [21] 105 % of control | [22] 108 % of control

COc1cc([C@@H]2c3cc4c(cc3[C@H](OC(C)=O)[C@H]3COC(=O)[C@@H]23)OCO4)cc(OC)c1OC
inactive: dose: 33.0 mg/kg/injection, schedule: Q01DX009 (ip), vehicle: saline with Tween-80 97 % of control | dose: 100.0 mg/kg/injection, schedule: Q04DX003 (ip), vehicle: Klucel (hydroxypropylcellulose) (HPC) 98 % of control | dose: 200.0 mg/kg/injection, schedule: Q04DX003 (ip), vehicle: Klucel (hydroxypropylcellulose) (HPC) 90 % of control

CCc1nc2[nH]c(N)nc(=S)c2cc1C
inactive: dose: 100.0 mg/kg/injection, schedule: Q01DX Z (ip), vehicle: methylcellulose (MC) 95 % of control | dose: 200.0 mg/kg/injection, schedule: Q01DX Z (ip), vehicle: methylcellulose (MC) 95 % of control

CC(=O)Nc1ccc(N=C(N)c2ccc(C(N)=Nc3ccc(NC(C)=O)cc3)cc2)cc1
inactive: dose: 62.0 mg/kg/injection, schedule: Q01DX015 (ip), vehicle: methylcellulose (MC) 98 % of control | dose: 125.0 mg/kg/injection, schedule: Q01DX015 (ip), vehicle: methylcellulose (MC) 86 % of control | dose: 250.0 mg/kg/injection, schedule: Q01DX015 (ip), vehicle: methylcellulose (MC) 91 % of control | dose: 500.0 mg/kg/injection, schedule: Q01DX015 (ip), vehicle: methylcellulose (MC) 86 % of control

O=[As](O)(O)c1ccc(OCCO)cc1
inactive: [23] 96 % of control | dose: 200.0 mg/kg/injection, schedule: Q01DX009 (ip), vehicle: saline 96 % of control

CN1CCCN(C(c2ccccc2)c2ccc(Cl)cc2)CC1 (configuration not stated)
inactive: dose: 7.81 mg/kg/injection, schedule: Q01DX009 (ip), vehicle: saline 96 % of control | dose: 15.62 mg/kg/injection, schedule: Q01DX009 (ip), vehicle: saline 105 % of control | dose: 31.25 mg/kg/injection, schedule: Q01DX009 (ip), vehicle: saline 96 % of control
